The source of these data is patent US10308620B2, “Muscarinic M1 receptor positive allosteric modulators” (SUVEN LIFE SCIENCES LIMITED, priority 2015, dated 2019).

SMILES strings stand for the structures. Structures can show the parent of a compound that is named as a salt.

For orientation: EC50 means the midpoint of the concentration-response curve.

recombinant human Muscarinic M1 receptor, sequence (P11229 whole entry): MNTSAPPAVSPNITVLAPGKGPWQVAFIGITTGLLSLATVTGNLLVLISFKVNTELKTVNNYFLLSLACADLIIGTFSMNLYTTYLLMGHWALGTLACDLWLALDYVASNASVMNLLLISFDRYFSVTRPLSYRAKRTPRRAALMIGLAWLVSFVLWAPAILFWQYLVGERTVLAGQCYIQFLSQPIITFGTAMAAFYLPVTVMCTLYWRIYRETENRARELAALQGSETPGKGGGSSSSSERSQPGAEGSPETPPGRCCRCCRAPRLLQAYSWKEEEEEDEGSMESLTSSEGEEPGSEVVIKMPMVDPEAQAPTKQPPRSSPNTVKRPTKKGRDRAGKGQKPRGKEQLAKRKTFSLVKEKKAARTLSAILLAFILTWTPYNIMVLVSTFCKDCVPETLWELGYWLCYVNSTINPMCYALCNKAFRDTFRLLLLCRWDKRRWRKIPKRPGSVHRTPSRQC

This experiment has as its target recombinant human Muscarinic M1 receptor (Homo sapiens (Human), UniProt P11229). Put plainly: Allosteric potency EC50, CHO cells with pCRE-Luc reporter, in presence of EC20 of acetylcholine. The format is cell-based. To be noted: 4 hours. The protocol: Determination of Allosteric Potency EC50 Values for Muscarinic M1 Receptor:
A stable CHO cell line expressing recombinant human Muscarinic M1 receptor and pCRE-Luc reporter system was used for cell-based assay. The assay offers a non-radioactive based approach to determine binding of a compound to GPCRs. In this specific assay, the level of intracellular cyclic AMP which is modulated by activation or inhibition of the receptor is measured. The recombinant cells harbor luciferase reporter gene under the control of cAMP response element.
The above cells were grown in 96 well clear bottom white plates in Hams F12 medium containing 10% fetal bovine serum (FBS). Prior to the addition of compounds or standard agonist, cells were serum starved overnight. Increasing concentrations of test compounds were added along with EC20 of acetylcholine in OptiMEM medium to the cells. The incubation was continued at 37° C. in CO2 incubator for 4 hours. Medium was removed and cells were washed with phosphate buffered saline. The cells were lysed and luciferase activity was measured in a Luminometer. Luminescence units were plotted against the compound concentrations using Graphpad software. EC50 values of the compounds were defined as the concentration required in stimulating the luciferase activity by 50% in presence of EC20 of acetylcholine.
Consider `COc1ccc(CN2C=C(C(=O)NCC(C)(C)O)Oc3ccccc32)cc1` [Example 6, N-(2-Hydroxy-2-methylpropyl)-4-(4-methoxybenzyl)-4H-benzo[1,4]oxazine-2-carboxamide], for which the half-maximal effective concentration (EC50) was found to be 1510 nM.

For `O=C(N[C@H]1CCCC[C@@H]1O)C1=CN(Cc2ccccc2F)c2cccc(F)c2O1` [Example 2, N-(cis-1S,2S-2-Hydroxycyclohexyl)-4-(2-fluorobenzyl)-8-fluoro-4H-benzo[1,4]oxazine-2-carboxamide], the EC50 was 134 nM.

Take `O=C(N[C@H]1CCCC[C@@H]1O)C1=CN(Cc2cccc(F)c2)c2cccnc2O1` [Example 36, N-(cis-1S,2S-2-Hydroxycyclohexyl)-1-(3-fluorobenzyl)-1H-pyrido[2,3-b][1,4]oxazine-3-carboxamide]: the EC50 came to 1540 nM.

Turning to `O=C(N[C@H]1CCCC[C@@H]1O)C1=CN(Cc2ccccn2)c2c(F)cccc2O1` [Example 56, N-(cis-1S,2S-2-Hydroxycyclohexyl)-4-(pyridin-2-ylmethyl)-5-fluoro-4H-benzo[1,4]oxazine-2-carboxamide], the 50% effective concentration (EC50) is 1480 nM.

Consider `O=C(N[C@H]1CCCC[C@@H]1O)C1=CN(Cc2ccccc2)c2ncccc2O1` [Example 30, N-(cis-1S, 2S-2-Hydroxycyclohexyl)-4-benzyl-4H-pyrido[3,2-b][1,4]oxazine-2-carboxamide], for which the EC50 stood at 955 nM.

Regarding `O=C(N[C@H]1CCCC[C@@H]1O)C1=CN(Cc2cccc(F)c2F)c2ccccc2[S+]1[O-]` (stereo partly drawn) [Example 93, N-(cis-1S,2S-2-Hydroxycyclohexyl)-4-(2,3-difluorobenzyl)-1-oxo-4H-benzo[1,4]thiazine-2-carboxamide], the EC50 came to 906 nM.

Regarding `O=C(N[C@@H]1CCC[C@H]1O)C1=CN(Cc2cccc(F)c2F)c2cccc(F)c2O1` [Example 42, N-(trans-1R,2R-2-Hydroxycyclopentyl)-4-(2,3-difluorobenzyl)-8-fluoro-4H-benzo[1,4]oxazine-2-carboxamide], the EC50 came to 686 nM.

For `O=C(N[C@H]1CCCC[C@@H]1O)C1=CN(Cc2ccncc2)c2cccc(F)c2O1` [Example 57, N-(cis-1S,2S-2-Hydroxycyclohexyl)-4-(pyridin-4-ylmethyl)-8-fluoro-4H-benzo[1,4]oxazine-2-carboxamide], the EC50 stood at 179 nM.

`O=C(N[C@H]1CCCC[C@@H]1O)C1=CN(Cc2ccccc2F)c2c(F)ccc(F)c2O1` [Example 61, N-(cis-1S,2S-2-Hydroxycyclohexyl)-4-(2-fluorobenzyl)-5,8-difluoro-4H-benzo[1,4]oxazine-2-carboxamide]: the EC50 amounted to 219 nM.

For the compound `CC(C)(O)CNC(=O)C1=CN(Cc2cccc(F)c2)c2ccccc2O1` [Example 8, N-(2-Hydroxy-2-methylpropyl)-4-(3-fluorobenzyl)-4H-benzo[1,4]oxazine-2-carboxamide], the concentration for a half-maximal effect (EC50) was 2890 nM.

For `COc1cc(CN2C=C(C(=O)NCC(C)(C)O)Oc3ccccc32)ccn1` [Example 12, N-(2-Hydroxy-2-methylpropyl)-4-(2-methoxypyridin-4-ylmethyl)-4H-benzo[1,4]oxazine-2-carboxamide], the EC50 stood at 1510 nM.

With `O=C(N[C@H]1CCCC[C@@H]1O)C1=CN(Cc2ccc(Cl)nc2)c2ccccc2[S+]1[O-]` (stereo partly drawn) [Example 97, N-(cis-1S, 2S-2-Hydroxycyclohexyl)-4-{2-chloropyridin-5-ylmethyl}-1-oxo-4H-benzo[1,4]thiazine-2-carboxamide], the EC50 was determined as 1060 nM.

In the case of `O=C(Nc1ccccc1CO)C1=CN(Cc2cccc(F)c2F)c2cccc(F)c2O1` [Example 44, N-(2-Hydroxymethylphenyl)-4-(2,3-difluorobenzyl)-8-fluoro-4H-benzo[1,4]oxazine-2-carboxamide], the EC50 came to 1280 nM.

With `O=C(N[C@H]1CCCC[C@@H]1O)C1=CN(Cc2ccccc2)c2ccccc2[S+]1[O-]` (stereo partly drawn) [Example 94, N-(cis-1S,2S-2-Hydroxycyclohexyl)-4-benzyl-1-oxo-4H-benzo[1,4]thiazine-2-carboxamide], the concentration giving a half-maximal response (EC50) came out at 1400 nM.

For `O=C(N[C@H]1CCCC[C@@H]1O)C1=CN(Cc2ccccc2F)c2ncccc2O1` [Example 3, N-(cis-1S,2S-2-Hydroxycyclohexyl)-4-{2-fluorobenzyl}-4H-pyrido[3,2-b][1,4]oxazine-2-carboxamide], the EC50 was found to be 1150 nM.

On to `O=C(NC1CCNCC1F)C1=CN(Cc2cccc(F)c2F)c2cccc(F)c2O1` (stereo not shown) [Example 74, N-(3-Fluoropiperidin-4-yl)-4-(2,3-difluorobenzyl)-8-fluoro-4H-benzo[1,4]oxazine-2-carboxamide hydrochloride], for which the EC50 amounted to 2100 nM.

`O=C(N[C@H]1CCCC[C@@H]1O)C1=CN(Cc2ccccn2)c2ccccc2O1` [Example 25, N-(cis-1S,2S-2-Hydroxycyclohexyl)-4-(pyridin-2-ylmethyl)-4H-benzo[1,4]oxazine-2-carboxamide]: the EC50 stood at 911 nM.

Turning to `O=C(NC1CCNCC1O)C1=CN(Cc2cccc(F)c2F)c2cccc(F)c2O1` (stereo not shown) [Example 75, N-(3-Hydroxypiperidin-4-yl)-4-(2,3-difluorobenzyl)-8-fluoro-4H-benzo[1,4]oxazine-2-carboxamide trifluoroacetate], the EC50 stood at 160 nM.

In the case of `O=C(NC1CCNCC1F)C1=CN(Cc2ccccc2F)c2cccc(F)c2O1` (stereo not shown) [Example 73, N-(3-Fluoropiperidin-4-yl)-4-(2-fluorobenzyl)-8-fluoro-4H-benzo[1,4]oxazine-2-carboxamide hydrochloride], the EC50 stood at 2370 nM.

In the case of `O=C(N[C@@H]1CCC[C@H]1O)C1=CN(Cc2cccc(F)c2F)c2ccccc2O1` [Example 39, N-(trans-1R,2R-2-Hydroxycyclopentyl)-4-(2,3-difluorobenzyl)-4H-benzo[1,4]oxazine-2-carboxamide], the EC50 is 1550 nM.

Consider `O=C(N[C@H]1CCCC[C@@H]1O)C1=CN(Cc2ccccc2Cl)c2ccccc2O1` [Example 41, N-(cis-1S, 2S-2-Hydroxycyclohexyl)-4-(2-chlorobenzyl)-4H-benzo[1,4]oxazine-2-carboxamide], for which the EC50 is 168 nM.

Consider `O=C(N[C@H]1CCCC[C@@H]1O)C1=CN(Cc2cccnc2)c2ccccc2O1` [Example 22, N-(cis-1S,2S-2-Hydroxycyclohexyl)-4-(pyridin-3-ylmethyl)-4H-benzo[1,4]oxazine-2-carboxamide], for which the EC50 came out at 353 nM.

On to `O=C(N[C@H]1CCCC[C@@H]1O)C1=CN(Cc2cccc(F)c2)c2ccccc2[S+]1[O-]` (stereo partly drawn) [Example 95, N-(cis-1S,2S-2-Hydroxycyclohexyl)-4-{3-fluorobenzyl}-1-oxo-4H-benzo[1,4]thiazine-2-carboxamide], for which the EC50 was 1520 nM.

Take `Cc1cc(-c2cc(CN3C=C(C(=O)N[C@H]4CCCC[C@@H]4O)Oc4ccccc43)ccn2)cnc1F` [Example 58, N-(cis-1S,2S-2-Hydroxycyclohexyl)-4-(6′-fluoro-5′-methyl-[2,3′]bipyridinyl-4-ylmethyl)-4H-benzo[1,4]oxazine-2-carboxamide]: the EC50 worked out at 1340 nM.

`COc1cccc(CN2C=C(C(=O)NCC(C)(C)O)Oc3ccccc32)c1` [Example 10, N-(2-Hydroxy-2-methylpropyl)-4-(3-methoxybenzyl)-4H-benzo[1,4]oxazine-2-carboxamide]: the EC50 is 1550 nM.

As for `O=C(N[C@H]1CCCC[C@@H]1O)C1=CN(Cc2ccnc(Cl)c2)c2ccccc2O1` [Example 24, N-(cis-1S,2S-2-Hydroxycyclohexyl)-4-(2-chloropyridin-4-ylmethyl)-4H-benzo[1,4]oxazine-2-carboxamide], the EC50 turned out to be 514 nM.

Take `O=C(N[C@H]1CCCC[C@@H]1O)C1=CN(Cc2ccc(Cl)nc2)c2ccccc2S1` [Example 91, N-(cis-1S,2S-2-Hydroxycyclohexyl)-4-{2-chloropyridin-5-ylmethyl}-4H-benzo[1,4]thiazine-2-carboxamide]: the EC50 was 141 nM.

In the case of `O=C(N[C@H]1CCCC[C@@H]1O)C1=CN(Cc2ccccc2)c2ccccc2S1` [Example 87, N-(cis-1S,2S-2-Hydroxycyclohexyl)-4-benzyl-4H-benzo[1,4]thiazine-2-carboxamide], the EC50 was found to be 131 nM.

Turning to `O=C(NC1CCNCC1O)C1=CN(Cc2ccccc2F)c2ccccc2O1` (stereo not shown) [Example 76, N-(3-Hydroxypiperidin-4-yl)-4-(2-fluorobenzyl)-4H-benzo[1,4]oxazine-2-carboxamide trifluoroacetate], the EC50 turned out to be 412 nM.

In the case of `O=C(N[C@H]1CCCC[C@@H]1O)C1=CN(Cc2ccc(F)cc2)c2ccccc2O1` [Example 13, N-(cis-1S,2S-2-Hydroxycyclohexyl)-4-(4-fluorobenzyl)-4H-benzo[1,4]oxazine-2-carboxamide], the EC50 is 907 nM.

Consider `O=C(N[C@H]1CCCC[C@@H]1O)C1=CN(Cc2ccc(F)cc2)c2ccccc2S1` [Example 89, N-(cis-1S,2S-2-Hydroxycyclohexyl)-4-{4-fluorobenzyl}-4H-benzo[1,4]thiazine-2-carboxamide], for which the EC50 was 460 nM.

Consider `COc1ccc(CN2C=C(C(=O)N[C@H]3CCCC[C@@H]3O)Sc3ccccc32)cc1` [Example 88, N-(cis-1S,2S-2-Hydroxycyclohexyl)-4-{4-methoxybenzyl}-4H-benzo[1,4]thiazine-2-carboxamide], for which the EC50 amounted to 145 nM.

With `O=C(Nc1ccccc1CO)C1=CN(Cc2cccc(F)c2F)c2ccccc2O1` [Example 45, N-(2-Hydroxymethylphenyl)-4-(2,3-difluorobenzyl)-4H-benzo[1,4]oxazine-2-carboxamide], the EC50 came to 1580 nM.

`O=C(N[C@H]1CCCC[C@@H]1O)C1=CN(Cc2ccncc2)c2ccccc2S1` [Example 90, N-(cis-1S,2S-2-Hydroxycyclohexyl)-4-{pyridin-4-ylmethyl}-4H-benzo[1,4]thiazine-2-carboxamide]: the EC50 is 599 nM.
